Reference: US4206088A, “Solid conducting agent” (priority 1978, dated 1980)
Counter-ions that a name gives are not always drawn.

Experiment: volume resistivity
Assay type: physicochemical
Conditions: 23° C., 50% relative humidity
Method: In the present invention, it is very important that the above-mentioned protonically conductive solid should be adsorbed and supported on a finely divided inorganic solid acid.
Incidentally, in this and subsequent Examples, all the values of the volume resistivity were those as measured at a temperature of 23° C. and a relative humidity of 50%, unless otherwise indicated.

With `NCCN` [Ethylenediamine sulfate] the volume resistivity was 2.74×10^8 .OMEGA.-cm.
With `N=C(N)N` [Guanidine sulfate] the volume resistivity was 6.69×10^7 .OMEGA.-cm.
For `C1N2CN3CN1CN(C2)C3` [Hexamethylene-tetraamine succinate], the volume resistivity was 2.05×10^11 .OMEGA.-cm.
In the case of `C1CNCCN1.O=S(=O)(O)O` [Piperazine sulfate], the volume resistivity is reported as 9.35×10^7 .OMEGA.-cm.
In the case of `C1CCNCC1.O=S(=O)(O)O` [piperidine sulfate], the volume resistivity is reported as 3.54×10^7 .OMEGA.-cm.

Experiment: not given
Conditions: as determined at 20° C.; cited from earlier work

In order of falling “First Stage Base Dissociation Constant (pKb)” value:
1. c1ccc(-c2ccccn2)nc1 [2,2'-Bis-pyridine]  9.88
2. NO [Hydroxylamine]  8.03
3. CCNN [Ethylhydrazine]  6.29
4. CNN [Methylhydrazine]  6.13
5. NN [Hydrazine]  6.07
6. Nc1ccncc1 [4-Aminopyridine]  4.83
7. CN(C)C [Trimethylamine]  4.24
8. C=CCN [Allylamine]  3.51
9. CN [Methylamine]  3.38
10. CCCCCN [Amylamine]  3.37
11. CCN [Ethylamine]  3.37
12. NC1CCCCC1 [Cyclohexylamine]  3.36
13. N=C(N)Nc1ccccc1 [Phenylguanidine]  3.23
14. CNC [Dimethylamine]  3.13
15. CCNCC [Diethylamine]  3.02
16. C1CCNCC1 [Piperidine]  2.78
17. C1CCNC1 [Pyrrolidine]  2.73
18. C1CNC1 [Trimethylene-imine]  2.71
